According to US4455290A, “Inhibition of fibrin polymerization by a peptide isolated from fibrin Fragment D1” (Research Corporation, priority 1981, dated 1984):
Peptide text beside a SMILES is read from it.

Tests used:
Fragment D1 = molecular target: T1, Fragment D1 (Homo sapiens, UniProt P02671+P02675+P02679); assay: Equilibrium binding of 125-I D1 Peptide, Fragment D1
T1 construct: consisted of three polypeptide chains of different molecular weights: /α/, 12,000; /β, 43,000; and /γ, 39,000; made in house; host or cells: not recombinant: plasmin (plasminogen + streptokinase) digest of human fibrinogen in calcium, then gel filtration
T1 sequence (P02671 124-225 limits assumed): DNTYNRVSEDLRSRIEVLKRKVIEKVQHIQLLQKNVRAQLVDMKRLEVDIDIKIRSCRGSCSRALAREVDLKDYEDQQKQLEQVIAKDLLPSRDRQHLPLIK
T1 sequence (P02675 164-491 limits assumed): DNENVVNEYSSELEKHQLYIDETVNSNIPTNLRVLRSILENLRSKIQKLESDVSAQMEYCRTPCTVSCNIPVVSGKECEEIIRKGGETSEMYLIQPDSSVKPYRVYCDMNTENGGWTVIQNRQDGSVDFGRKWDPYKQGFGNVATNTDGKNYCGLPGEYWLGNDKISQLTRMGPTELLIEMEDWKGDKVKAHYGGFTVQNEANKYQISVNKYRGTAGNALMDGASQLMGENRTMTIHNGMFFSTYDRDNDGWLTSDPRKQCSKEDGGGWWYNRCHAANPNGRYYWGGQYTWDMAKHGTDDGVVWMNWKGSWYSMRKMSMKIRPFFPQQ
T1 sequence (P02679 89-437 isoform P02679-2 limits assumed): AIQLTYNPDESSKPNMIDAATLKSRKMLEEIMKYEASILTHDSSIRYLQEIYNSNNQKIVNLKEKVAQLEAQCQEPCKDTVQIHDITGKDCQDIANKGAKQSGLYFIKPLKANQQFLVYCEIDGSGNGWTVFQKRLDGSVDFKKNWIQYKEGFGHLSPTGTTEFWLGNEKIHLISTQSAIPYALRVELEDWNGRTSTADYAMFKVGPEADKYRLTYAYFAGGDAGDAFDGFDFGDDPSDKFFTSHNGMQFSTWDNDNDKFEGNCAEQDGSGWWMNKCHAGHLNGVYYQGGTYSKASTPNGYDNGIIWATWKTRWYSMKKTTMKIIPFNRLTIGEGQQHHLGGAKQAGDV
Excerpt: Acta 133, 376-379 (1979).

fibrinogen = molecular target: T2, fibrinogen (Homo sapiens, UniProt P02671+P02675+P02679); assay: Delay of onset of fibrin polymerization, fibrinogen in the presence of thrombin; assay type: biochemical; settings: 1:1 ratio of D1 Peptide to fibrinogen in the presence of thrombin
T2 sequence (P02671 36-629 isoform P02671-2): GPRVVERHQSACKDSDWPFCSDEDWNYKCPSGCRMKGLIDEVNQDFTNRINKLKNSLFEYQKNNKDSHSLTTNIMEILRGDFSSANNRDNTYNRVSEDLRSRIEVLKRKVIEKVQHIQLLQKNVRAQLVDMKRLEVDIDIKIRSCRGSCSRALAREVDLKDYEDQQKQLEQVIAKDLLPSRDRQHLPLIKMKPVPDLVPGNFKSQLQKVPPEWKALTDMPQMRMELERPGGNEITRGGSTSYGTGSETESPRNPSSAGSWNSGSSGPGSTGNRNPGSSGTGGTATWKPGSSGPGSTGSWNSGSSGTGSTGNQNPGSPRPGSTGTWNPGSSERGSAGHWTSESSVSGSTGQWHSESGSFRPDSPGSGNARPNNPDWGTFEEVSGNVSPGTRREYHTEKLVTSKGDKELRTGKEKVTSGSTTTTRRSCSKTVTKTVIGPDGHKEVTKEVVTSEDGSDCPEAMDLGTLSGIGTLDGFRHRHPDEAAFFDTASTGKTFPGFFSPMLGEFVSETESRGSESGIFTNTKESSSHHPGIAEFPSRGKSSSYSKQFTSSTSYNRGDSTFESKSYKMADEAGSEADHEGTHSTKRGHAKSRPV
T2 sequence (P02675 45-491): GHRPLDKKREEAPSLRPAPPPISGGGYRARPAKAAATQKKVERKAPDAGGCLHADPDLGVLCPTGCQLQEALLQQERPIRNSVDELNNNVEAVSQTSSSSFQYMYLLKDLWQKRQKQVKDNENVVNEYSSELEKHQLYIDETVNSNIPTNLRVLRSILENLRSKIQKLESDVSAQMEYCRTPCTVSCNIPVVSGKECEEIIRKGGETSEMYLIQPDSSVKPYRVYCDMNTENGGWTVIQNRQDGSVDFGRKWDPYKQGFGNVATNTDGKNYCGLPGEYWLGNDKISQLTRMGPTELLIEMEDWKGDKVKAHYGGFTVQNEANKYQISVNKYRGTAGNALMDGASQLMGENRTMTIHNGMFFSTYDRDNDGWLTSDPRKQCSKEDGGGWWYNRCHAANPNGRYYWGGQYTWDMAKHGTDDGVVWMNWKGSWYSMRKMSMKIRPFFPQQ
T2 sequence (P02679 27-437 isoform P02679-2): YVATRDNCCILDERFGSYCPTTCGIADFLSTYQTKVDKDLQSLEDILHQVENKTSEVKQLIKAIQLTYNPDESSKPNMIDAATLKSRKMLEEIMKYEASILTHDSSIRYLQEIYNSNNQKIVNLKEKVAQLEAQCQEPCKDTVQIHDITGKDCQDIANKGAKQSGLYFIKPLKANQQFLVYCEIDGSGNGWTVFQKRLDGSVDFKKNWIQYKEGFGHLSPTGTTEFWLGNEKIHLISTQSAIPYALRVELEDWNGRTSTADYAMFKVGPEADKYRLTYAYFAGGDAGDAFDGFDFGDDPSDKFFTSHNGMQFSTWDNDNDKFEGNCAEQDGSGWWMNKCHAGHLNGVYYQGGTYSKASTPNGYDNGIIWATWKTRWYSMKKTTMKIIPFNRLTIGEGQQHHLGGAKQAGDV

intact NDSK = molecular target: T3, intact NDSK (Homo sapiens, UniProt P02671+P02675+P02679); assay: Equilibrium binding of 125-I D1 Peptide, intact NDSK
T3 sequence (P02671 20-70 limits assumed): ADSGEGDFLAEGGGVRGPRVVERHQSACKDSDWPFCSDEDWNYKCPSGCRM
T3 sequence (P02675 31-148 limits assumed): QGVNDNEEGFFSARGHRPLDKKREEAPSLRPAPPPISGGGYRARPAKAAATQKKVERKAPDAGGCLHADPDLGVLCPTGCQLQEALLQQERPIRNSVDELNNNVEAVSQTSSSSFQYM
T3 sequence (P02679 27-104 limits assumed): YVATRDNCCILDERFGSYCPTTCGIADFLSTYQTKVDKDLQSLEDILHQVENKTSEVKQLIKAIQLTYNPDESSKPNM

For `CC[C@H](C)[C@H](NC(=O)[C@H](CCCCN)NC(=O)[C@H](CCSC)NC(=O)[C@@H](NC(=O)[C@@H](NC(=O)[C@H](CCCCN)NC(=O)[C@H](CCCCN)NC(=O)[C@H](CCSC)NC(=O)[C@H](CO)NC(=O)[C@H](Cc1ccc(O)cc1)NC(=O)[C@H](Cc1c[nH]c2ccccc12)NC(=O)[C@H](CCCNC(=N)N)NC(=O)[C@@H](N)[C@@H](C)O)[C@@H](C)O)[C@@H](C)O)C(=O)N[C@H](C(=O)N1CCC[C@H]1C(=O)N[C@@H](Cc1ccccc1)C(=O)N[C@@H](CC(N)=O)C(=O)N[C@@H](CCCNC(=N)N)C(=O)N[C@@H](CC(C)C)C(=O)N[C@H](C(=O)N[C@H](C(=O)NCC(=O)N[C@@H](CCC(=O)O)C(=O)NCC(=O)N[C@@H](CCC(N)=O)C(=O)N[C@@H](CCC(N)=O)C(=O)N[C@@H](Cc1c[nH]cn1)C(=O)N[C@@H](Cc1c[nH]cn1)C(=O)N[C@@H](CC(C)C)C(=O)NCC(=O)NCC(=O)N[C@@H](C)C(=O)N[C@@H](CCCCN)C(=O)N[C@@H](CCC(N)=O)C(=O)N[C@@H](C)C(=O)NCC(=O)N[C@@H](CC(=O)O)C(=O)N[C@H](C(=O)O)C(C)C)[C@@H](C)CC)[C@@H](C)O)[C@@H](C)CC` [D1 Peptide] (H-TRWYSMKKTTMKIIPFNRLTIGEGQQHHLGGAKQAGDV-OH), which “binding to Fragment D1” value (Fragment D1) is on record?
The value was “no measurable binding”.

What about the “delay of the onset of fibrin polymerization” value (fibrinogen) of the same compound?
The value was 8 min.

What about the “binding to intact NDSK” value (intact NDSK) of the same compound?
The value was “no measurable binding”.
